In PMC6681393, “Intra-Nasally Administered Oligopeptide Lunasin Acts as a Possible Anti-Psychotic Agent in Mice Models” (Medicina, 2019):
Entries after “also recorded” stand apart in the source; their conditions may differ.

Experiments:
[1] = tested on: amphetamine-induced hyperlocomotion in ICR mice; assay: Open field locomotor activity, amphetamine-induced hyperlocomotion; format: in vivo, male albino ICR mice; details: amphetamine 3 mg/kg i.p.; p = 0.0008 vs control; n = 7–8
[2] = tested on: brain monoamine levels, amphetamine-treated mice; assay: Brain monoamines and metabolites, amphetamine-treated mice (UHPLC-TOF-MS); format: in vivo, male albino ICR mice; details: amphetamine 3 mg/kg i.p.
[3] = tested on: DOI-induced hyperlocomotion in ICR mice; assay: Open field locomotor activity, DOI-induced hyperlocomotion; format: in vivo, male albino ICR mice; details: DOI 3 mg/kg i.p.; p = 0.0033 vs control; n = 7–8
[4] = tested on: brain monoamine levels, DOI-treated mice; assay: Brain monoamines and metabolites, DOI-treated mice (UHPLC-TOF-MS); format: in vivo, male albino ICR mice; details: DOI 3 mg/kg i.p.
[5] = tested on: 5-HT2A receptor; details: cited from earlier work
Protocol: (§1) The aims of the present studies were: to test whether lunasin would show an influence on the dopaminergic system after intranasal administration, and to examine the effect(s) of lunasin on serotonin and glutamatergic systems, which could play an essential role in antipsychoti ... || The binding assay was performed by Eurofins Cerep (France) according to Bryant et al., 1996 [15]. Briefly, the binding of lunasin to 5-HT2A and 5-HT2C receptors was estimated on its ability to displace the specific binding of [^125I]DOI on cell membrane suspensions of HEK-293 cells expressing human recombinant 5-HT2A and 5-HT2C receptors. The radioligand [^125I]DOI has high affinity for 5-HT2A (Kd: 0.3 nM) and 5-HT2C (Kd: 0.9 nM) receptors. Lunasin was tested at concentrations of 1, 10 and 100 µM. The results were expressed as a percent of radioligand specific binding (n = 2).

[6] = tested on: 5-HT2C receptor; details: cited from earlier work
Protocol: as §1

[7] = tested on: hyper-locomotion; details: published data; cited from earlier work
Protocol: The selected DOI dose in our behavioural studies was 3 mg/kg, which according to published data, corresponds to the dose range (0.625-5.0 mg/kg) that induces hyper-locomotion. […] These altered parameters ...

[8] = tested on: PCP-induced hyperlocomotion in ICR mice; assay: Open field locomotor activity, phencyclidine-induced hyperlocomotion; format: in vivo, male albino ICR mice; details: PCP 5 mg/kg i.p.; p < 0.0001 vs control; n = 7–8
[9] = comparison for lunasin, abstract, source not printed there
[10] = radioligand affinity quoted in method, Eurofins Cerep, ref Bryant et al., 1996 [15]

C[C@H](N)Cc1ccccc1 [Amphetamine, d-amphetamine, reference compound]
increase in total walked distance versus control [1]: approximately 2 -fold
brain DOPAC concentration [2]: Neither lunasin per se nor amphetamine changed the DOPAC concentration
brain 5-HIAA level ([2]; p < 0.0001): increased brain serotonin and its metabolite 5-HIAA levels
brain dopamine level ([2]; p < 0.0001): markedly increased the dopamine level
brain noradrenaline level ([2]; p < 0.0001): augmented by amphetamine
brain serotonin level ([2]; p < 0.0001): increased brain serotonin and its metabolite 5-HIAA levels
brain HVA level ([2]; p = 0.0079): increased by amphetamine

COc1cc(CC(C)N)c(OC)cc1I (centres unmarked) [DOI, 1-(2,5-dimethoxy-4-iodophenyl)-2-aminopropane, reference compound]
effect on locomotion versus control [3]: induced hyperactivity
brain 5-HIAA level [4]: up-regulated levels of serotonin and 5-HIAA; also recorded: considerable elevation of brain levels of serotonin and its metabolite 5-HIAA
brain dopamine concentration [4]: did not change dopamine brain concentrations; also recorded: did not change the dopamine concentration
brain serotonin level [4]: up-regulated levels of serotonin and 5-HIAA; also recorded: considerable elevation of brain levels of serotonin and its metabolite 5-HIAA
brain DOPAC concentration ([4]; p < 0.001): elevated; also recorded: increasing DOPAC levels
brain noradrenaline level ([4]; p < 0.05): decreased by DOI treatment; also recorded: lowered those of HVA and noradrenaline
brain HVA level ([4]; p = 0.0022): decreased by DOI treatment; also recorded: lowered those of HVA and noradrenaline
receptor affinity, concentration range [5, 9]: nM concentrations
receptor affinity, concentration range [6, 9]: nM concentrations
dose range that induces hyper-locomotion [7]: 0.625 to 5.0 mg/kg

Cl.c1ccc(C2(N3CCCCC3)CCCCC2)cc1 [PCP, 1-(1-phenylcyclohexyl)piperidine hydrochloride, reference compound]
effect on locomotion versus control [8]: induced hyperlocomotion

COc1cc(CC(C)N)c(OC)cc1I (centres unmarked) [[125I]DOI]
Kd [5, 10]: 300 pM
Kd [6, 10]: 900 pM
